Each structure is given as a SMILES string.

Assay [1] relates to A549. The assay can be described thus: Cytotoxicity against human A549 cells assessed as cell growth inhibition after 48 hrs by MTT assay. The assay is classed as functional, cell-based. The conditions noted are these: A549, 48 h.
The subject of assay [2] is MCF7. As to the kind of experiment: Cytotoxicity against human MCF7 cells assessed as cell growth inhibition after 48 hrs by MTT assay. In kind it is functional, cell-based. Particulars: MCF7, 48 h. Background: Tetrazolium assays rely on reduction of a dye to a coloured formazan, in cell work by metabolically active cells.
The test system of assay [3] is Bel-7402. As to the kind of experiment: Cytotoxicity against human Bel7402 cells assessed as cell growth inhibition after 48 hrs by MTT assay. In kind it is functional, cell-based. The conditions noted are these: Bel-7402, 48 h.
Assay [4] has as its system K562. As to the kind of experiment: Cytotoxicity against human K562 cells assessed as cell growth inhibition after 48 hrs by MTT assay. The assay is classed as functional, cell-based. The conditions noted are these: K562, 48 h.
Assay [5] deals with L02. The assay can be described thus: Cytotoxicity against human LO2 cells assessed as cell growth inhibition after 48 hrs by MTT assay. In kind it is cell-based. Particulars: L02, 48 h.
The subject of assay [6] is A549/TR. As to the kind of experiment: Cytotoxicity against human A549/T cells assessed as cell growth inhibition after 48 hrs by MTT assay. The assay is classed as functional, cell-based.
In assay [7] the test system is NCI/ADR-RES. The assay can be described thus: Cytotoxicity against human MCF7/ADR cells assessed as cell growth inhibition after 48 hrs by MTT assay. The assay is classed as functional, cell-based.
Assay [8] relates to Bel7402/5-FU. As to the kind of experiment: Cytotoxicity against human Bel7402/5-FU cells assessed as cell growth inhibition after 48 hrs by MTT assay. In kind it is functional, cell-based.
For assay [9], the system named is K562/Adr. The assay can be described thus: Cytotoxicity against human K562/ADR cells assessed as cell growth inhibition after 48 hrs by MTT assay. The assay is classed as functional, cell-based.

With `CC1(C)[C@@H](O)CC[C@]2(C)[C@H]3C(=O)C=C4[C@@H]5C[C@@](C)(C(=O)OCCCCCCn6cc(F)c(=O)[nH]c6=O)CC[C@]5(C)CC[C@@]4(C)[C@]3(C)CC[C@@H]12`, the IC50 in [1] stood at 49.4 µM; in assay [2], 50.3 µM; in [3], 40.9 µM; in [4] it was 35.1 µM; in assay [5] it was 73.2 µM.

On to `C[C@H]1[C@H](C)CC[C@]2(C(=O)OCCCCCCCCn3cc(F)c(=O)n(CCCCCCCCOC(=O)[C@@]45CC[C@]6(C)C(=CC[C@@H]7[C@@]8(C)CC[C@H](O)C(C)(C)[C@@H]8CC[C@]76C)[C@@H]4C[C@@H](C)[C@H](C)C5)c3=O)CC[C@]3(C)C(=CC[C@@H]4[C@@]5(C)CC[C@H](O)C(C)(C)[C@@H]5CC[C@]43C)[C@H]12`, for which the 50% inhibitory concentration (IC50) in [1], in assay [2], in [3], in assay [4] and in [5] was over 200 µM each time.

In the case of `CC1(C)CC[C@]2(C(=O)O)CC[C@]3(C)C(=CC[C@@H]4[C@@]5(C)CC[C@H](O)C(C)(C)[C@@H]5CC[C@]43C)[C@@H]2C1` [OLEANOLIC_ACID], the IC50 in assay [1] is 41.6 µM; in assay [2] it was over 200 µM; in assay [3] it was 59.9 µM; in assay [4], over 200 µM; in [5], over 200 µM; in assay [6], over 200 µM. Further, the half-inhibitory concentration (IC50) in [7], in assay [8] and in assay [9] was over 200 µM each time.

In the case of `CC1(C)CC[C@]2(C(=O)OCCCCCCCCn3cc(F)c(=O)[nH]c3=O)CC[C@]3(C)C(=CC[C@@H]4[C@@]5(C)CC[C@H](O)C(C)(C)[C@@H]5CC[C@]43C)[C@@H]2C1`, the IC50 is 50.5 µM in assay [1]; 53.6 µM in assay [2]; 43.8 µM in assay [3]; 23 µM in assay [4]; over 200 µM in assay [5]; 43.1 µM in [6]. Further, the IC50 is 166 µM in [7], 31.4 µM in [8] and over 200 µM in assay [9].

For the compound `C[C@H]1[C@H](C)CC[C@]2(C(=O)O)CC[C@]3(C)C(=CC[C@@H]4[C@@]5(C)CC[C@H](O)C(C)(C)[C@@H]5CC[C@]43C)[C@H]12` [URSOLIC ACID], the IC50 in assay [1] is 77.7 µM; in assay [2], 70.1 µM; in assay [3], 64.6 µM; in assay [4], 41 µM; in [5], 58.4 µM; in assay [9], 38.1 µM.

For `CC1(C)CC[C@]2(C(=O)OCCCCCCn3cc(F)c(=O)[nH]c3=O)CC[C@]3(C)C(=CC[C@@H]4[C@@]5(C)CC[C@H](O)C(C)(C)[C@@H]5CC[C@]43C)[C@@H]2C1`, the IC50 in assay [1] came to 23.4 µM; in assay [2], 24.3 µM; in assay [3] it was 25.2 µM; in [4], 14.9 µM; in assay [5], 46.6 µM.

Regarding `C[C@H]1[C@H](C)CC[C@]2(C(=O)OCCCCCCn3cc(F)c(=O)n(CCCCCCOC(=O)[C@@]45CC[C@]6(C)C(=CC[C@@H]7[C@@]8(C)CC[C@H](O)C(C)(C)[C@@H]8CC[C@]76C)[C@@H]4C[C@@H](C)[C@H](C)C5)c3=O)CC[C@]3(C)C(=CC[C@@H]4[C@@]5(C)CC[C@H](O)C(C)(C)[C@@H]5CC[C@]43C)[C@H]12`, the IC50 in [1], in assay [2], in assay [3], in [4] and in assay [5] was over 200 µM throughout.

Regarding `C[C@H]1[C@H](C)CC[C@]2(C(=O)OCCCCCCn3cc(F)c(=O)[nH]c3=O)CC[C@]3(C)C(=CC[C@@H]4[C@@]5(C)CC[C@H](O)C(C)(C)[C@@H]5CC[C@]43C)[C@H]12`, the IC50 in assay [1] is 17.4 µM; in assay [2], 18.9 µM; in assay [3], 32.5 µM; in [4], 14.9 µM; in assay [5] it was 22.2 µM.

`CC1(C)CC[C@]2(C(=O)OCCCCCCn3cc(F)c(=O)n(CCCCCCOC(=O)[C@]45CCC(C)(C)C[C@H]4C4=CC[C@@H]6[C@@]7(C)CC[C@H](O)C(C)(C)[C@@H]7CC[C@@]6(C)[C@]4(C)CC5)c3=O)CC[C@]3(C)C(=CC[C@@H]4[C@@]5(C)CC[C@H](O)C(C)(C)[C@@H]5CC[C@]43C)[C@@H]2C1`: the IC50 in assay [1], in assay [2], in assay [3], in assay [4] and in assay [5] was over 200 µM throughout.

Take `CC1(C)[C@@H](O)CC[C@]2(C)[C@H]3C(=O)C=C4[C@@H]5C[C@@](C)(C(=O)OCCCCCCCCn6cc(F)c(=O)n(CCCCCCCCOC(=O)[C@@]7(C)CC[C@]8(C)CC[C@]9(C)C(=CC(=O)[C@@H]%10[C@@]%11(C)CC[C@H](O)C(C)(C)[C@@H]%11CC[C@]%109C)[C@@H]8C7)c6=O)CC[C@]5(C)CC[C@@]4(C)[C@]3(C)CC[C@@H]12`: the IC50 in [1], in assay [2], in [3], in assay [4] and in assay [5] was over 200 µM each time.

For `CC1(C)[C@@H](O)CC[C@]2(C)[C@H]3C(=O)C=C4[C@@H]5C[C@@](C)(C(=O)OCCCCCCn6cc(F)c(=O)n(CCCCCCOC(=O)[C@@]7(C)CC[C@]8(C)CC[C@]9(C)C(=CC(=O)[C@@H]%10[C@@]%11(C)CC[C@H](O)C(C)(C)[C@@H]%11CC[C@]%109C)[C@@H]8C7)c6=O)CC[C@]5(C)CC[C@@]4(C)[C@]3(C)CC[C@@H]12`, the IC50 in assay [1], in assay [2], in assay [3], in assay [4] and in assay [5] was over 200 µM in each case.

Consider `C[C@H]1[C@H](C)CC[C@]2(C(=O)OCCCCCCCCn3cc(F)c(=O)[nH]c3=O)CC[C@]3(C)C(=CC[C@@H]4[C@@]5(C)CC[C@H](O)C(C)(C)[C@@H]5CC[C@]43C)[C@H]12`, for which the IC50 in [1], in assay [2], in assay [3], in assay [4] and in assay [5] was over 200 µM in each case.

For the compound `CC1(C)CC[C@]2(C(=O)OCCCCCCCCn3cc(F)c(=O)n(CCCCCCCCOC(=O)[C@]45CCC(C)(C)C[C@H]4C4=CC[C@@H]6[C@@]7(C)CC[C@H](O)C(C)(C)[C@@H]7CC[C@@]6(C)[C@]4(C)CC5)c3=O)CC[C@]3(C)C(=CC[C@@H]4[C@@]5(C)CC[C@H](O)C(C)(C)[C@@H]5CC[C@]43C)[C@@H]2C1`, the IC50 in [1], in assay [2], in assay [3], in assay [4] and in assay [5] was over 200 µM throughout.

For `O=c1[nH]cc(F)c(=O)[nH]1` [FLUOROURACIL], the IC50 in [1] was 50.4 µM; in [2], 52.1 µM; in assay [3], 53.3 µM; in assay [4], 41.7 µM; in assay [5], over 200 µM; in [6], 84.3 µM. For the same compound, the figures for the IC50 in assay [7], in [8] and in assay [9] were 54.7 µM, 38.2 µM and 31.9 µM, respectively.

Turning to `CC1(C)[C@@H](O)CC[C@]2(C)[C@H]3C(=O)C=C4[C@@H]5C[C@@](C)(C(=O)O)CC[C@]5(C)CC[C@@]4(C)[C@]3(C)CC[C@@H]12` [ENOXOLONE], the IC50 in [1] is over 200 µM; in assay [2], over 200 µM; in assay [3], over 200 µM; in assay [4] it was over 200 µM; in [5] it was over 200 µM; in assay [6] it was 99.9 µM. Besides, the 50% inhibitory concentration (IC50) in [7] was 74.5 µM; in assay [8], 69.8 µM; in assay [9], 86.5 µM.

The term IC50 denotes the midpoint of a concentration-inhibition curve.
